Data taken from article doi:10.1101/2024.08.19.608619, “Discovery of potent SARS-CoV-2 nsp3 macrodomain inhibitors uncovers lack of translation to cellular antiviral response” (bioRxiv, 2024).
Values after ≈ are worked out from the molar mass of the structure shown. Values joined by “and” are separate entries in the source; they are usually repeats but may differ in a detail not shown here. Equal values may be shown once. Read-outs that look alike come from different tables or passages of the source.

Assays:
SARS-CoV-2 = test: Antiviral effect in iPSC-derived pneumocyte system; type: cell-based; settings: iPSC pneumocytes SARS-CoV-2 antiviral effect; for perc_max_measured: maximum measured response of dose series; for perc_min_measured: minimum measured response of dose series
iPSC pneumocytes = iPSC pneumocytes cytotoxicity; type: cell-based; settings: for perc_max_measured: highest measured response of the dose series; for perc_min_measured: lowest measured response of the dose series
From the text: Supplement media-1.zip/Cytotoxicity.csv, table | column: cc10; cc50; perc_min_measured; perc_max_measured

[1] = In vitro kinetic solubility; settings: In vitro kinetic solubility, ph 7.4
in vitro [2] = test: in vitro; set-up: Cytotoxicity in iPSC-derived pneumocytes, CC50; settings: human, ipsc-derived pneumocytes, read-out: 50.0
From the text: Finally, we consider the hypothesis that interferon response triggers ADP-ribosylation, thus profiling the compounds in enhanced and physiologically relevant interferon environments could reveal detectable antiviral effects. […] Furthermore, HeLa-ACE2 cells, and all cancerous cell lines, display defective innate immune response ([1]). As such, we also assess our compound in a primary-like iPSC-derived pneumocyte system (Figure 7C), showing likewise a lack of antiviral activity in this physiologically relevant innate immunity system.

[3] = test system: SARS-CoV-2, isolate USA-WA1/2020; test: microbe, parasite or virus in culture; type: cell-based; settings: HeLa-ACE2 SARS-CoV-2 antiviral effect without P-gp inhibitor; for perc_max_measured: maximum measured response of dose series; for perc_min_measured: minimum measured response of dose series; for EC50: read-out: ec50; for EC90: read-out: ec90
[4] = Hepatic microsomal stability, HLM; type: in vitro ADME, human; settings: In vitro human liver microsomal stability; for perc_remaining_no_cofactor: no cofactor
HeLa-ACE2 cells = settings: protocol HeLa-ACE2 cytotoxicity; for perc_max_measured: highest measured response of the dose series; for perc_min_measured: lowest measured response of the dose series
[5] = Permeability Papp (AB) MDR1/MDCKII; settings: for papp_a_to_b_mean / papp_b_to_a_mean / efflux_ratio / perc_recovery_a_to_b_mean / perc_recovery_b_to_a_mean: In vitro MDR1-MDCKII permeability; for papp_a_to_b_mean: A to B; for papp_b_to_a_mean: B to A; for perc_recovery_a_to_b_mean / perc_recovery_a_to_b_inhibitor_mean: recovery A to B; for perc_recovery_b_to_a_mean / perc_recovery_b_to_a_inhibitor_mean: recovery B to A; for perc_recovery_a_to_b_inhibitor_mean / perc_recovery_b_to_a_inhibitor_mean: MDR1-MDCKII
in vitro [6] = settings: human, hela-ace2 cells, 50.0
LogD = settings: pH 7.4; In vitro LogD
[7] = Hepatic microsomal stability, MLM; type: in vitro ADME
[8] = In vitro mouse liver microsomal stability
[9] = In vitro mouse liver microsomal stability, no cofactor
[10] = protocol iPSC pneumocytes cytotoxicity
[11] = In vitro mouse liver microsomal stability; no cofactor

| Structure (SMILES) | EC50 (SARS-CoV-2) | EC90 (SARS-CoV-2) | perc_max_measured (SARS-CoV-2) | perc_min_measured (SARS-CoV-2) | solubility_mean [1] | perc_max_measured [3] | perc_min_measured [3] | EC50 [3] | EC90 [3] | clint [4] | perc_remaining [4] | t_half [4] | perc_remaining_no_cofactor [4] | CC50 (HeLa-ACE2 cells) | cc10 (HeLa-ACE2 cells) | perc_max_measured (HeLa-ACE2 cells) | perc_min_measured (HeLa-ACE2 cells) | CC50 at 24 h (in vitro [6]) | logd (LogD) | clint [7, 8] | also measured |
| --- | --- | --- | --- | --- | --- | --- | --- | --- | --- | --- | --- | --- | --- | --- | --- | --- | --- | --- | --- | --- | --- |
| CC(C)[C@H](Nc1ncnc2[nH]c(-c3cnn(CC(N)=O)c3)cc12)c1ccc2c(c1)S(=O)(=O)CCC2 (single isomer, unassigned) [ASAP-0011428] | > 50 µM | > 50 µM | 119.318% | 70.174% | 338 µM (≈ 167 µg/mL) | 108.399% | 92.21% | > 20 µM | > 20 µM | 240.0 µL/min/mg | 2.0% | 7.0 min | 115.0% | > 20 µM | > 20.0 µM | 96.287% | 76.492% | > 20 µM | 2.1 | 39.0 µL/min/mg | CC50 (iPSC pneumocytes): > 50 µM; cc10 (iPSC pneumocytes): > 50.0 µM; perc_max_measured (iPSC pneumocytes): 106.229%; perc_min_measured (iPSC pneumocytes): 92.999%; CC50 (in vitro [2]; ASAP-0008327-001=ASAP-0011428-001): > 50 µM; papp_a_to_b_mean ([5]; mean): 1.98 ×10⁻⁶ cm/s; papp_a_to_b_mean ([5]; no inhibitor): 0.0832 ×10⁻⁶ cm/s; papp_b_to_a_mean ([5]; no inhibitor): 0.072 ×10⁻⁶ cm/s; efflux_ratio ([5]; no inhibitor): 0.9; perc_recovery_a_to_b_mean ([5]; mean): 85.9%; perc_recovery_a_to_b_mean ([5]; no inhibitor): 65.5%; perc_recovery_b_to_a_mean ([5]; no inhibitor): 72.9%; perc_recovery_a_to_b_inhibitor_mean ([5]; with inhibitor Verapamil): 73.2%; perc_recovery_b_to_a_inhibitor_mean ([5]; with inhibitor Verapamil): 79.8%; perc_remaining [7, 8]: 53.0%; t_half [7, 8]: 42.6 min; perc_remaining_no_cofactor [7, 9]: 98.0% |
| CC(C)[C@@H](Nc1ncnc2[nH]c(-c3cnn(C)c3)cc12)c1ccc2c(c1)S(=O)(=O)CCC2 (single isomer, unassigned) [ASAP-0012329] | 7.59 µM | > 50 µM | 103.795% | 0.206% | 111 µM (≈ 50 µg/mL) | 119.22% | 72.714% | > 20 µM | > 20 µM | 405.0 µL/min/mg | 0.0% | 4.1 min | 105.0% | > 20 µM | > 20.0 µM | 91.281% | 71.036% | > 20 µM | 3.2 | 140.0 µL/min/mg | CC50 (iPSC pneumocytes): > 50 µM; cc10 (iPSC pneumocytes): 30.402 µM; perc_max_measured (iPSC pneumocytes): 108.573%; perc_min_measured (iPSC pneumocytes): 85.97%; CC50 (in vitro [2]; ASAP-0008327-001=ASAP-0012329-001): > 50 µM; papp_b_to_a_mean ([5]; no inhibitor): 3.9 ×10⁻⁶ cm/s and 5.0 ×10⁻⁶ cm/s; efflux_ratio ([5]; no inhibitor): 40.3 and 73.5; perc_recovery_a_to_b_mean ([5]; no inhibitor): 72.3% and 98.8% and 68.0%; perc_recovery_b_to_a_mean ([5]; no inhibitor): 79.2% and 106.0%; perc_recovery_a_to_b_inhibitor_mean ([5]; with inhibitor Cyclosporin A): 77.4%; perc_recovery_a_to_b_inhibitor_mean ([5]; with inhibitor Verapamil): 104.0%; perc_recovery_b_to_a_inhibitor_mean ([5]; with inhibitor Cyclosporin A): 63.1%; perc_recovery_b_to_a_inhibitor_mean ([5]; with inhibitor Verapamil): 96.9%; perc_remaining [7, 8]: 10.0%; t_half [7, 8]: 11.9 min; perc_remaining_no_cofactor [7, 9]: 102.0% |
| CC(C)[C@@H](Nc1ncnc2[nH]c(-c3cnn(CC(N)=O)c3)cc12)c1ccc2c(c1)OCCO2 [ASAP-0008288] | 37.1 µM | > 50 µM | 96.462% | 23.083% | 345 µM (≈ 154 µg/mL) | 122.799% | 73.654% | > 50 µM | > 50 µM | 99.0 µL/min/mg | 20.0% | 16.9 min | 103.0% | > 50 µM | > 50.0 µM | 128.866% | 114.308% | > 50 µM | 0.9 | 41.0 µL/min/mg | CC50 (iPSC pneumocytes; [10]): > 50 µM; cc10 (iPSC pneumocytes; [10]): > 50.0 µM; perc_max_measured (iPSC pneumocytes; [10]): 102.79%; perc_min_measured (iPSC pneumocytes; [10]): 85.436%; CC50 (in vitro [2]; ASAP-0008327-001=ASAP-0008288-001): > 50 µM; papp_a_to_b_mean ([5]; mean): 0.9 ×10⁻⁶ cm/s; perc_recovery_a_to_b_mean ([5]; mean): 89.0%; perc_remaining [7, 8]: 54.0%; t_half [7, 8]: 41.1 min; perc_remaining_no_cofactor [7, 11]: 87.0% |
| CNC(=O)c1cc2c(N[C@@H](c3ccc4c(c3)OCCO4)C(C)C)ncnc2[nH]1 [ASAP-0008348] | > 50 µM | > 50 µM | 153.61% | 91.144% | 380 µM (≈ 145 µg/mL) | 114.293% | 64.264% | > 50 µM | > 50 µM | 79.0 µL/min/mg | 23.0% | 21.1 min | 92.0% | > 50 µM | > 50.0 µM | 108.404% | 99.225% | > 50 µM | 2.76 | 55.0 µL/min/mg | CC50 (iPSC pneumocytes; [10]): > 50 µM; cc10 (iPSC pneumocytes; [10]): > 50.0 µM; perc_max_measured (iPSC pneumocytes; [10]): 98.804%; perc_min_measured (iPSC pneumocytes; [10]): 52.012%; CC50 (in vitro [2]; ASAP-0008327-001=ASAP-0008348-001): > 50 µM; papp_a_to_b_mean ([5]; mean): 1.96 ×10⁻⁶ cm/s; perc_recovery_a_to_b_mean ([5]; mean): 86.8%; perc_remaining [7, 8]: 43.0%; t_half [7, 8]: 30.5 min; perc_remaining_no_cofactor [7, 11]: 112.0% |
| CC(C)(C)[C@@H](Nc1ncnc2[nH]c(-c3cnn(CC(N)=O)c3)cc12)c1ccc2c(n1)OCCO2 [ASAP-0011162] | 11.4 µM | > 50 µM | 91.919% | 11.328% | 390 µM (≈ 180 µg/mL) | 115.43% | 93.464% | > 20 µM | > 20 µM | 42.0 µL/min/mg | 49.0% | 39.8 min | 107.0% | > 20 µM | > 20.0 µM | 99.27% | 66.005% | > 20 µM | 2.9 | 30.0 µL/min/mg | CC50 (iPSC pneumocytes): > 50 µM; cc10 (iPSC pneumocytes): > 50.0 µM; perc_max_measured (iPSC pneumocytes): 104.975%; perc_min_measured (iPSC pneumocytes): 91.59%; CC50 (in vitro [2]; ASAP-0008327-001=ASAP-0011162-001): > 50 µM; papp_a_to_b_mean ([5]; mean): 1.53 ×10⁻⁶ cm/s; perc_recovery_a_to_b_mean ([5]; mean): 75.9%; perc_remaining [7, 8]: 59.0%; t_half [7, 8]: 56.2 min; perc_remaining_no_cofactor [7, 9]: 109.0% |
| CNCc1cc(-c2cc3c(N[C@@H](c4ccc5c(c4)S(=O)(=O)NCC5)C(C)C)ncnc3[nH]2)co1 [ASAP-0011243] | 30.7 µM | > 50 µM | 102.14% | 30.967% | 372 µM (≈ 179 µg/mL) | 99.818% | 81.688% | > 20 µM | > 20 µM | 46.0 µL/min/mg | 47.0% | 35.9 min | 93.0% | > 20 µM | > 20.0 µM | 96.42% | 81.709% | > 20 µM | 1.9 | 42.0 µL/min/mg | CC50 (iPSC pneumocytes): > 50 µM; cc10 (iPSC pneumocytes): > 50.0 µM; perc_max_measured (iPSC pneumocytes): 101.3%; perc_min_measured (iPSC pneumocytes): 90.486%; CC50 (in vitro [2]; ASAP-0008327-001=ASAP-0011243-001): > 50 µM; papp_a_to_b_mean ([5]; mean): 1.2 ×10⁻⁶ cm/s; perc_recovery_a_to_b_mean ([5]; mean): 76.5%; perc_remaining [7, 8]: 49.0%; t_half [7, 8]: 40.0 min; perc_remaining_no_cofactor [7, 9]: 95.0% |
